The results in this text go back to patent US5480905A, “Benzodioxane derivatives” (Chugai Seiyaku Kabushiki Kaisha, priority 1991, dated 1996).

Where a name gives a salt, the structure may show the parent alone.

Test [1] concerns the target T1, serotonin 1A receptor (Rattus norvegicus, UniProt P19327).
T1 construct: the cortex and hippocampal tissue were extracted from the brain; from tissue; host or cells: brain cortex and hippocampus of 7-week-old male S.D. rats, washed membrane homogenate
T1 sequence (P19327 1-422): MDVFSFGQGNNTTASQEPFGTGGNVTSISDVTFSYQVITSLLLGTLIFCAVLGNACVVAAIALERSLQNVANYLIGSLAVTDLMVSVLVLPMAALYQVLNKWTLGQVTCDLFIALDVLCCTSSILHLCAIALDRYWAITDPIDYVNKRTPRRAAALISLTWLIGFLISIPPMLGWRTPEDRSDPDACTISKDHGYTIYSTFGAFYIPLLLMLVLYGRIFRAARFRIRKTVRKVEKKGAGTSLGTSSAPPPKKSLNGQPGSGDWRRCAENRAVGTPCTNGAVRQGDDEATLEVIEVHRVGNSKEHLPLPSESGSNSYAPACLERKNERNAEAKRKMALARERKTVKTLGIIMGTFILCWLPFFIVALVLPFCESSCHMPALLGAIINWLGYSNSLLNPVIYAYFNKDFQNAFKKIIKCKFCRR
Nature of the test: Serotonin 1A receptor binding experiment (3H-8-OH-DPAT). As to conditions: rat cortex and hippocampal tissue; 0.5 nM 3H-8-OH-DPAT; IC50 in M; read-out: -logIC50 5-HT1A (converted). How it is done: (§1) Affinity for intracerebral serotonin 1A and serotonin 2 receptor was checked in accordance with the method of Hall et al. (J. Neurochem., 44, 1685-1695, 1985) and the method of Leysen et al. (Mol. Pharmacol., 21, 301-314, 1982).
(§2) Stated more specifically, the cortex and hippocampal tissue were extracted from the brain of 7-wk old S.D. line male rats, mixed with 20 volumes of Tris-HCl buffer (50 mM, pH 7.7) and homogenized with a Teflon homogenizer. Thereafter, the homogenate was centrifuged at 39800×g for 20 min and the supernatant was discarded. Forty volumes of a buffer were added to the precipitate and the mixture was homogenized with a Polytron homogenizer, with the homogenate being centrifuged under the same condition as set forth above. The same procedure was repeated two more times and the final precipitate was homogenized with 40 volumes of a buffer; thereafter, the homogenate was stored at least overnight at -80° C. On the day when binding experiments were to be conducted, the homogenate was thawed at room temperature and incubated at 37° C. for 20 min to remove the endogenous serotonin.
(§3) Thereafter, centrifugation was conducted at 39800×g for 20 min and 40 volumes of a buffer were added to the precipitate, followed by homogenization. This procedure was repeated three times; to the final precipitate, a buffer was added in 65 volumes for the case of serotonin 1A receptor and in 80 volumes for the case of serotonin 2 receptor and the mixture was homogenized in preparation for the binding experiments that are described below. All procedures of experimentation except storage in a frozen state and thawing at room temperature were conducted at 4° C. or below.
A reaction solution containing 0.5 nM (final concentration) of 3H-8-hydroxy-2-(di-n-propylamino)tetralin (8-OH-DPAT), […] and 500 μl of brain homogenate in 1.0 ml (final volume) of a buffer was incubated at 25° C. for 30 min. Thereafter, the reaction solution was filtered by rapid passage through a glass filler. The filter was washed rapidly with an ice-cooled buffer (3 ml) three times, put into a scintillation vial together with a scintillation cocktail, and left to stand overnight at 4° C. On the next day, the vial was agitated well and measurements were conducted with a scintillation counter. To determine the amount of specific binding, the amount of binding in the presence of excess unlabeled serotonin (10 μM) was subtracted from the total amount of binding. As an index for the affinity of a test compound for either receptor, the concentration at which the specific binding of ^3 H-DPAT was inhibited by 50% (IC50, M) was determined using computer software EBDA/LIGAND (Biosoft).

The target in test [2] is T2, serotonin 2 receptor (Rattus norvegicus, UniProt P14842).
T2 construct: the cortex and hippocampal tissue were extracted from the brain; from tissue; host or cells: brain cortex and hippocampus of 7-week-old male S.D. rats, washed membrane homogenate
T2 sequence (P14842 whole entry): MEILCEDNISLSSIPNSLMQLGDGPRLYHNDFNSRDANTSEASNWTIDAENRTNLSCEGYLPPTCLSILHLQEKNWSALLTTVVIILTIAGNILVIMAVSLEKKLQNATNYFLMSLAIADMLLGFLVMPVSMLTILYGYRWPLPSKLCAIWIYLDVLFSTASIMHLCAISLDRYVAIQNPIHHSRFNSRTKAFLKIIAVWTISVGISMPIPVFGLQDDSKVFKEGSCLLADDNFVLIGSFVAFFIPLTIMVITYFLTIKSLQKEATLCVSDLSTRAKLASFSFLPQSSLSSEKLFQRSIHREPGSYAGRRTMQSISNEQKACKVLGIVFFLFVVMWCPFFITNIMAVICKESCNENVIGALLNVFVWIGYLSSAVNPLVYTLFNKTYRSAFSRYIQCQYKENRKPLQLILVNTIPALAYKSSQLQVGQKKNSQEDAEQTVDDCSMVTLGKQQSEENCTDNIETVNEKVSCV
Nature of the test: Serotonin 2 receptor binding experiment (3H-ketancerine). As to conditions: rat cortex and hippocampal tissue; 0.5 nM 3H-ketancerine; IC50 in M; read-out: -logIC50 5-HT2 (converted). How it is done: as §1, §2, §3
A reaction solution containing 0.5 nM (final concentration) of ^3 H-ketancerine and 500 μl of brain homogenate in 1.0 ml (final volume) of a buffer was incubated at 30° C. for 30 min. Subsequent procedures were the same as in the serotonin 1A receptor binding experiment and IC50 (M) was determined accordingly. To determine the amount of specific binding, the amount of binding in the presence of excess unlabelled methysergide ([…]) was subtracted from the total amount of binding.

Consider `O=C(NCCNCC1COc2c(O)cccc2O1)C12CC3CC(CC(C3)C1)C2` (stereo not drawn) [Compound 19, N-{[2-(5-hydroxy-1,4-benzodioxan-2ylmethyl)amino]ethyl)tricyclo[3,3,1,1^3, ^7]decane-1-1-carboxyamide], for which the IC50 in test [1] is 0.00631 µM; in test [2], 1 µM.
The like results for `CC(=O)c1cccc2c1OC(CNCCNC(=O)C13CC4CC(CC(C4)C1)C3)CO2` (stereo not drawn) [Compound 15, N-{[2-(8-acetyl-1,4benzodioxan-2ylmethyl)amino]ethyl}tricyclo[3,3,1,1^3, ^7]decane-1-carboxyamide] were, in that order, 0.00316 µM and 0.0631 µM.
`Cc1cc(C)c2c(c1)OCC(CNCCNC(=O)C13CC4CC(CC(C4)C1)C3)O2` (stereo not drawn) [Compound 20, N-{[2(6,8-dimethyl-1,4-benzodioxan-2ylmethyl)amino]ethyl)tricyclo[3,3,1,1^3, ^7]decane-1-carboxyamide]: the IC50 was greater than 0.0316 µM in test [1] and 0.2 µM in test [2].
In the case of `Cc1cccc2c1OC(CNCCNC(=O)C13CC4CC(CC(C4)C1)C3)CO2` (single isomer, unassigned; (+)) [Compound 8, (+)-N-{[2-(8-methyl-1,4-benzodioxan-2ylmethyl)amino]ethyl}tricyclo[3,3,1,1^3, ^7]decane-1-carboxyamide hydrochloride], the IC50 in test [1] was 0.00631 µM; in test [2] it was 0.0501 µM.
For `C=CCN(CCNC(=O)C12CC3CC(CC(C3)C1)C2)CC1COc2cccc(C)c2O1` (stereo not drawn) [Compound 9, N-{[2-(8-methyl-1,4-benzodioxan-2-ylmethyl)allylamino]ethyl}tricyclo[3,3,1^3, ^7]decane-1-carboxyamide], the IC50 in test [1] was 0.00398 µM; in test [2], 1 µM.
As for `CC(C)Cc1ccc2c(c1)OC(CNCCNC(=O)C13CC4CC(CC(C4)C1)C3)CO2` (stereo not drawn) [Compound 13, N-{[2-(7-isobutyl-1,4-benzodioxan-2ylmethyl)amino]ethyl}tricyclo[3,3,1,1^3, ^7]decane-1-carboxyamide], the IC50 in test [1] is 0.0631 µM; in test [2], 0.316 µM.
On to `Cc1cccc2c1OC(CN(CCNC(=O)C13CC4CC(CC(C4)C1)C3)Cc1ccccc1)CO2` (stereo not drawn) [Compound a, N-{[2-(8-methyl 1,4-benzodioxan-2-ylmethyl)benzylamino]ethyl}tricyclo[3,3,1,^3, ^7]decane-1-carboxyamide], for which the values for the IC50 in test [1] and in test [2] were 0.158 µM and greater than 1 µM, respectively.
As to `CCCN(CCNC(=O)C12CC3CC(CC(C3)C1)C2)CC1COc2cccc(C)c2O1` (stereo not drawn) [Compound 10], the values for the IC50 in test [1] and in test [2] were 0.01 µM and 0.631 µM, respectively.
In the case of `Cc1ccc(C)c2c1OCC(CNCCNC(=O)C13CC4CC(CC(C4)C1)C3)O2` (stereo not drawn) [Compound 11, N-{[2-(5,8-dimethyl-1,4-benzodioxan-2-ylmethyl)amino]ethyl}tricyclo[3,3,1^3, ^7]decane-1-carboxyamide], the results for the IC50 in test [1] and in test [2] were 0.00398 µM and 0.0794 µM, respectively.
